Measured values as given in patent publication US5763423A, “Pharmaceutical compositions, novel uses, and novel form of tocopherylphosphocholine” (Clarion Pharmaeuticals Inc., priority 1996, dated 1998).
Entries after “also recorded” stand apart in the source; their conditions may differ.

How the values were obtained:
[1] = test system: Herpes simplex virus type-1; test: Inhibition of cytopathic effects (CPE), Herpes Simplex Virus Type 1; type: cell-based, HSV-1 KOS strain (in Buffalo Green Monkey Kidney cells); settings: 100 μM, 48 hr
Method: (§1) The first assay is for inhibition of cytopathic effects (CPE) caused by viral infection of the cells and the second is a standard viral yield reduction assay. This yield reduction assay is a modification of the general method described by Erlich et al., Ann. NY Acad. Sci. 130, 5-16 (1965).
(§2) 1. Buffalo Green Monkey Kidney cells, obtained from Dr. G. Sedmak, City of Milwaukee, Public Health Department Virology Laboratory, are plated at a density of 7×10^4 cells per well in a standard flat bottom 96 well cell culture plate. The cells are contained in a volume of 200 μl Dulbecco's Modified Eagles Medium (DMEM) containing 10% serum [1:1 mixture of fetal bovine serum and defined supplemented calf serum (Hyclone, Inc., Ogden, Utah), 10 mM HEPES buffer (pH 7.2), 100 U/ml penicillin and 100 μg/ml streptomycin sulfate]. HEPES and antibiotics are obtained from Sigma Chemical Co. (St. Louis, Mo.). Two wells are plated for each of the following samples: compound CPR-2001, cell control (cells only), virus control (cells infected but not treated), vehicle control (solvent for compound, 9:1 dimethylsulfoxide:ethanol), and cell counts.
2. […]
9. At the end of 48 hr, each well is scored for the presence of CPE as indicated by rounding and/or detachment of the cells from the plate. […]

[2] = test system: Herpes simplex virus type-1; test: Viral yield reduction assay, Herpes Simplex Virus Type 1; type: cell-based, HSV-1 KOS strain (in Buffalo Green Monkey Kidney cells)
Method: as §1, §2
(§3) 2. The cultures are incubated at 37° C. with 5% CO2 until a monolayer of cells is formed on the bottom of each well (usually overnight).
(§4) 3. The media is removed from the wells by aspiration. The cells are refed with media containing the desired concentration of test compound CPR-2001 (100 μM final concentration), media only (cell control and virus control samples), or solvent (9:1, DMSO:ethanol) at a final concentration of 0.33%. Compound CPR-2001 is dissolved at a stock concentration of 30 mM and diluted 300-fold. The cell count wells receive media only.
(§5) 4. The cultures are incubated for 24 hr at 37° C. with 5% CO2.
7. […]
10. After scoring for viral CPE, the yield of infectious virus in each well is measured by standard plaque assay on Vero cells (ATCC #CCL81). […] Excess stain is rinsed from the cells, the number of plaques are counted and the yield of virus in the original sample is calculated.

[3] = test system: Buffalo Green Monkey Kidney cells; test: Toxicity to uninfected cells (rounding and/or detachment, 24 hr); type: cell-based; design: key to Toxicity 24 hr: Not toxic
Method: as §2, §3, §4, §5
5. At the end of 24 hr, each well is scored for the presence of toxicity (cells exposed to compound but not infected) as indicated by rounding and/or detachment of the cells from the plate. Scoring is as follows: 1+, 25% of cells rounded; 2+, 25 to 50% of cells rounded; 3+, 75% of cells rounded; 4+, 100% of cells rounded.

Poliovirus Type III [4] = type: cell-based; settings: 100 μM, 48 hr
Poliovirus Type III [5] = type: cell-based; settings: 100 μM, 48 hr; remark: listed apart in the source
Candida albicans = test: Antifungal assay, Candida albicans; type: cell-based
Method: (§6) 1. 10^4 Cells (either C. albicans or C. neoformans) are placed in wells of a 96-well plate within a total volume of 90 μl. Cells are grown in RPMI-1640 plus 10% FCS.
(§7) 2. Add 10 μl of control or drug to be evaluated (CPR-2001):
(§8) Fungizone (2.5 μg/ml and 5.0 μg/ml); and
(§9) 3. Incubate for 48 hours at 37° C.
(§10) 5. Plate onto Sabourand plates and incubate overnight at 37° C.; and
(§11) 6. Count and record colonies.
(§12) All samples are tested in duplicate in two separate experiments. The data are then averaged to obtain the following results in Table 2.

Cryptococcus neoformans = test: Antifungal assay, Cryptococcus neoformans; type: cell-based
Method: as §6, §7, §8, §9, §10, §11, §12

[6] = Anti-PAF activity in anesthetized guinea pigs (total pulmonary resistance); type: in vivo; settings: for TPR after PAF, % of Controls: PAF controls 183.36; for PAF antagonist activity / TPR (in words): 1, 3, 10, 30 and 50 μM per kg
[7] = Liposome particle size by laser-light scattering (QELS); type: physicochemical; settings: 10 micromoles
Description: […] The solution is transferred to a 16×120 mm screw-capped tube. The tube is placed, uncapped, inside a 1×8 inch boiling tube with B24/40 standard glass fitting. Inside the boiling tube, in the space between the boiling tube and the smaller screw-capped tube, there is a small amount of distilled water to aid thermal contact between the inner and outer tube. The boiling tube is placed on a rotary evaporator under reduced pressure to evaporate the chloroform and leave the lipid as a thin film in the lower portion of the screw-capped tube. The boiling tube is partly immersed in a water bath at 37° C. during the evaporation to aid the process.
(§13) Once a thin film has been formed, the screw-capped tube is removed from the boiling tube, and one ml. of aqueous solution is added to it. The tube is capped and immersed in a water bath at 75° C. to aid swelling of the lipid. Swelling of the film is observed to occur when the film becomes cloudy, and is, with agitation, dislodged from the walls of the tube to give a cloudy suspension in the aqueous medium. This suspension is found to consist of liposomes by the application of two techniques. First, laser-light scattering, or QELS, reveal the presence of particles of 658 nm in diameter in one determination, 1468 nm in another.
In a second preparation, 10 micromoles of CPR 2001 are taken through the identical procedure described above. […]

[8] = Electron microscopy of liposomes; type: physicochemical
Method: Five micromoles of CPR-2001 are dissolved in about 1 ml. of chloroform. The solution is transferred to a 16×120 mm screw-capped tube. The tube is placed, uncapped, inside a 1×8 inch boiling tube with B24/40 standard glass fitting. Inside the boiling tube, in the space between the boiling tube and the smaller screw-capped tube, there is a small amount of distilled water to aid thermal contact between the inner and outer tube. The boiling tube is placed on a rotary evaporator under reduced pressure to evaporate the chloroform and leave the lipid as a thin film in the lower portion of the screw-capped tube. The boiling tube is partly immersed in a water bath at 37° C. during the evaporation to aid the process.
as §13, with “another. […]” for “another.”

RAW 264.7 cells = test: Chemiluminescence (CL) assay, inhibition of macrophage activation by PMA; settings: for anti-inflammatory activity (in words): 1 to 30 μM; for inhibition at 1 µM / inhibition at 3 µM / inhibition at 10 µM / inhibition at 30 µM: Mus musculus, RAW264.7, read-out: % inhibition of macrophage activation by PMA
[9] = increasing concentration, 1 to 100 μg/ml

Cc1c(C)c2c(c(C)c1OP(=O)([O-])OCC[N+](C)(C)C)CCC(C)(CCCC(C)CCCC(C)CCCC(C)C)O2 (stereo not drawn) [CPR-2001, α-tocopherolphosphocholine]
Viral CPE [1]: 1+ (<25% of cells rounded) | development of viral cytopathic effect (in words) [1]: markedly inhibits the development of viral cytopathic effect | Virus Yields (48 Hours) ([2]; 100 μM): 5.5 × 10^4 PFU/ml | Reduction of virus yield (fold reduction) ([2]; 100 μM, 48 hr, compared to virus and vehicle control): 18 fold | activity at 100 µM ([2]; Human alphaherpesvirus 1, BGMK, in Chlorocebus sabaeus, 48 hr, virus control 1.00, read-out: Virus Yields (48 Hours), Yield): 5.5% | Toxicity ([3]; Table 1A, 100 μM, 24 hr): N-± | Toxicity 24 hr ([3]; Table 1B, 100 μM, 24 hr): N | Toxicity (in words) ([3]; at antivirally effective levels): No apparent cytotoxicity; also recorded: not toxic | CPE (Poliovirus Type III [4]): 2+ (25 to 50% of cells rounded) | development of viral CPE (in words) (Poliovirus Type III [4]): inhibits the development of viral CPE | Titer (Poliovirus Type III [5]): 2.7 × 10^6 pfu/ml | Fold-Reduction of virus yield (Poliovirus Type III [5]; compared to virus control): 10.7 fold | inhibition at 1 µg/mL (Candida albicans; Candida albicans, 1 mcg/ml, 48 hours): 25% | inhibition at 10 µg/mL (Candida albicans; Candida albicans, 10 mcg/ml, 48 hours): 40% | inhibition at 100 µg/mL (Candida albicans; Candida albicans, 100 mcg/ml, 48 hours): 76% | percent of fungal inhibition (in words) (Candida albicans; [9]): the percent of fungal inhibition also increases | inhibition at 1 µg/mL (Cryptococcus neoformans; Cryptococcus neoformans, 1 mcg/ml, 48 hours): 10% | inhibition at 10 µg/mL (Cryptococcus neoformans; Cryptococcus neoformans, 10 mcg/ml, 48 hours): 40% | inhibition at 100 µg/mL (Cryptococcus neoformans; Cryptococcus neoformans, 100 mcg/ml, 48 hours): 73% | percent of fungal inhibition (in words) (Cryptococcus neoformans; [9]): the percent of fungal inhibition also increases | TPR after PAF, % of Controls ([6]; 1 μM/kg i.v.): 193.75 % of Controls | TPR after PAF, % of Controls ([6]; 3 μM/kg i.v.): 124.58 % of Controls | TPR after PAF, % of Controls ([6]; 10 μM/kg i.v.): 98.19 % of Controls | TPR after PAF, % of Controls ([6]; 30 μM/kg i.v.): 19.60 % of Controls | TPR after PAF, % of Controls ([6]; 50 μM/kg i.v.): 8.33 % of Controls | PAF antagonist activity / TPR (in words) [6]: Decreases of TPR in a dose-related way | PAF antagonist activity / TPR (in words) ([6]; listed as α-tocopherolphosphocholine): marked PAF antagonist activity | particle size of liposomes (QELS) ([7]; after about 10 minutes sonication at 75° C.): 102 nm | particle size of liposomes (QELS) ([7]; before sonication): greater than 5,000 nm | structure of particles by electron microscopy ([8]; 5 micromoles, not sonicated): characteristic concentric lamellar structure of liposomes | structure of particles by electron microscopy ([8]; 10 micromoles, after sonication): still multilamellar, but smaller | anti-inflammatory activity (in words) (RAW 264.7 cells): marked dose-related anti-inflammatory activity | anti-inflammatory activity (in words) (RAW 264.7 cells; listed as CPR2001): antiinflammatory activity markedly increases | inhibition at 1 µM (RAW 264.7 cells): 5% | inhibition at 3 µM (RAW 264.7 cells): 13% | inhibition at 10 µM (RAW 264.7 cells): 31% | inhibition at 30 µM (RAW 264.7 cells): 56%

CC1=C(/C=C/C(C)=C/C=C/C(C)=C/C(=O)O)C(C)(C)CCC1 [Retinoic Acid, retinoic acid]
inhibition at 1 µM (RAW 264.7 cells): 2% | inhibition at 3 µM (RAW 264.7 cells): 6% | inhibition at 10 µM (RAW 264.7 cells): 3% | inhibition at 30 µM (RAW 264.7 cells): 6%

Cc1c(C)c2c(c(C)c1O)CCC(C)(CCCC(C)CCCC(C)CCCC(C)C)O2 (stereo not drawn) [α-Tocopherol, α-tocopherol]
inhibition at 1 µM (RAW 264.7 cells): -3% | inhibition at 3 µM (RAW 264.7 cells): -6% | inhibition at 10 µM (RAW 264.7 cells): -6% | inhibition at 30 µM (RAW 264.7 cells): -14%
